According to patent US9018175B2 (Takeda GmbH, priority 2009, dated 2015):

What was measured:
human PDE5 = molecular target: T1, human PDE5 (Homo sapiens, UniProt O76074); assay: Inhibition of PDE5 activity (SPA, [3H]cGMP, platelet lysate); assay type: biochemical; settings: PDE5 from human platelet lysate; values given as bins; read-out: PDE5A inhibitory values measured as −logIC50 (converted)
T1 construct: from tissue; host or cells: human platelets from fresh donor blood (10,000 g supernatant of sonicated platelets)
Protocol: As a source for human PDE5, platelets are used. For that purpose, 150 ml fresh blood from human donors anticoagulated with citrate [final concentration 0.3% (w/v)] is centrifuged at 200 g for 10 min to obtain the so-called platelet-rich-plasma (PRP) as a supernatant. 1/10 volume of ACD solution (85 mM Na3-citrate, 111 mM D-glucose, 71 mM citric acid, pH 4.4) is added to 9/10 volume of PRP. After centrifugation (1,400 g, 10 min) the cell pellet is resuspended in 3 ml homogenization buffer (NaCl 140 mM, KCl 3.8 mM, EGTA (ethylene glycol tetraacetic acid) 1 mM, MgCl2 1 mM, Tris-HCl 20 mM, beta-mercaptoethanol 1 mM, pH 8.2) plus protease-inhibitor mix giving rise to the final concentrations of 0.5 mM Pefablock (Roche), 10 μM Leupeptin, 5 μM Trypsininhibitor, 2 mM Benzamidin and 10 μM Pepstatin A. The suspension is sonified and thereafter centrifuged for 15 min at 10,000 g. The resulting supernatant (platelet lysate) is used for enzymatic testings.
PDE5 activities were measured in a 96-well platform using SPA (scintillation proximity assay) yttrium silicate beads (RPNQ1050 from GE Healthcare). In a first step the PDE activity operates hydrolysis of either [^3H] cGMP (substrate) into [^3H] 5′GMP. In a second step substrate and product are distinguished following addition of SPA yttrium silicate beads. Indeed, in the presence of zinc sulphate the linear [^3H] […] Close proximity of bound [^3H] […] The test volume is 100 pl and contains 20 mM Tris buffer (pH 7.4), 0.1 mg of BSA (bovine serum albumin)/ml, 5 mM Mg^2+, 1 μM motapizone (PDE3 Inhibitor), 10 nM PDE2 inhibitor 2-(3,4-dimethoxybenzyl)-7-[(1R,2R)-2-hydroxy-1-(2-phenylethyl)propyl]-5-methylimidazo[5,1-f][1,2,4]triazin-4(3H)-one, […] (cyclic guanosine monophosphate) (including about 50,000 cpm of [3H]cGMP as a tracer), 1 pl of the respective compound dilution in dimethylsulfoxide (DMSO) and sufficient PDE5-containing platelet lysat (10,000, g supernatant, see above) to ensure that 10-20 wt % of the cGMP is converted under the said experimental conditions. […] After a preincubation of 5 min at 37° C., the reaction is started by adding the substrate (cGMP) and the assay is incubated for a further 15 min; after that, it is stopped by adding SPA beads (50 pl). In accordance with the manufacturer's instructions, the SPA beads had previously been resuspended in water, but are then diluted 1:3 (v/v) in water; the diluted solution also contains 3 mM […]3-isobutyl-1-methylxanthine (IBMX) to ensure a complete PDE activity stop. After the beads have been sedimented (>30 min), the MTP's are analyzed in commercially available luminescence detection devices. The corresponding IC50 values of the compounds for the inhibition of PDE activity are determined from the concentration-effect curves by means of non-linear regression.

PDE4B1 = molecular target: T2, PDE4B1 (Homo sapiens, UniProt Q07343); assay: Inhibition of PDE4B1 activity (SPA, [3H]cAMP); assay type: biochemical; settings: recombinant PDE4B1 expressed in SF21 cells; 0.5 pM [sic] cAMP; values given as bins; read-out: PDE4B1 inhibitory values measured as −logIC50 (converted)
T2 construct: made in house; host or cells: SF21 insect cells (baculovirus; pCR-Bac vector)
T2 sequence (Q07343 whole entry): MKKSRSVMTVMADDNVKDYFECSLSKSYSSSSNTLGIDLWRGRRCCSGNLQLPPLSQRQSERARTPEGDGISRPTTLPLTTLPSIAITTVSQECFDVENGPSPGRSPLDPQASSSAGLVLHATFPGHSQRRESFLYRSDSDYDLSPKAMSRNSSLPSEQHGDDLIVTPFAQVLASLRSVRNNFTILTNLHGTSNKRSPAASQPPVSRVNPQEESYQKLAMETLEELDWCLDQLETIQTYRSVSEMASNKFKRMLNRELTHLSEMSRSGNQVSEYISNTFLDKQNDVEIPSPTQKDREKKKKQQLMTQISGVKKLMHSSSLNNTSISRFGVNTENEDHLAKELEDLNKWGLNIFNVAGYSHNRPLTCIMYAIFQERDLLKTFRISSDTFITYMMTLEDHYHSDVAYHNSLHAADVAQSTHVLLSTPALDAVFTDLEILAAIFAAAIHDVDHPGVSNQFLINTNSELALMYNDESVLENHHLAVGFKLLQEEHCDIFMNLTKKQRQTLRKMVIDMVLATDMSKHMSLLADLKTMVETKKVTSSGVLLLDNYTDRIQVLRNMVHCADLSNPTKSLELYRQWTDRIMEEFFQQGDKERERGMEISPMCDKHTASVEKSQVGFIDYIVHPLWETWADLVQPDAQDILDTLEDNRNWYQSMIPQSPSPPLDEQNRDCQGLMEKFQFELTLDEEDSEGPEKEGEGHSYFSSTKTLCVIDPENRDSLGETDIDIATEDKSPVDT
Protocol: The PDE4B1 (GB no. L20966) was a gift of Prof. M. Conti (Stanford University, USA). It was amplified from the original plasmid (pCMV5) via PCR with primers Rb18 (5′-[…]-3′) and Rb10 (5′-[…]-3′) and cloned into the pCR-Bac vector (Invitrogen, Groningen, NL).
The recombinant baculovirus was prepared by means of homologous recombination in SF9 insect cells. The expression plasmids were cotransfected with Baculo-Gold DNA (Pharmingen, Hamburg) using a standard protocol (Pharmingen, Hamburg). Wt virus-free recombinant virus supernatants were selected using plaque assay methods. After that, high-titre virus supernatants were prepared by amplifying 3 times. PDE4B1 was expressed in SF21 cells by infecting 2×10^6 cells/ml with an MOI (multiplicity of infection) between 1 and 10 in the serum-free medium Insect Express Sf9-S2 (PAA, Pasching, Austria). The cells were cultured at 28° C. for 48-72 hours, after which they were pelleted for 5-10 min at 1000×g and 4° C.
The SF21 insect cells were resuspended, at a concentration of approx. 10^7 cells/ml, in ice-cold (4° C.) homogenization buffer (20 mM Tris, pH 8.2, containing the following additions: 140 mM NaCl, 3.8 mM KCl, 1 mM EGTA, 1 mM MgCl2, 10 mM e-mercaptoethanol, 2 mM benzamidine, 0.4 mM Pefablock, 10 pM leupeptin, 10 pM pepstatin A, 5 pM trypsin inhibitor) and disrupted by ultrasonication. The homogenate was then centrifuged for 10 min at 1000, g and the supernatant was stored at −80° C. until subsequent use (see below). The protein content was determined by the Bradford method (BioRad, Munich) using BSA as the standard.
PDEB1 activities were measured in a 96-well platform using SPA (scintillation proximity assay) yttrium silicate beads (RPNQ1050 from GE Healthcare). In a first step the PDE activity operates hydrolysis of either [^3H] cAMP (substrate) into [^3H] 5′AMP. In a second step substrate and product are distinguished following addition of SPA yttrium silicate beads. Indeed, in the presence of zinc sulphate the linear [^3H] […] Close proximity of bound [^3H] […] The test volume is 100 pl and contains 20 mM Tris buffer (pH 7.4), 0.1 mg/ml of BSA, 5 mM Mg^2+, […] (including about 50,000 cpm of [3H]cAMP), 1 pl of the respective substance dilution in DMSO and sufficient recombinant PDE (1000, g supernatant, see above) to ensure that 10-20% of the cAMP is converted under the said experimental conditions. […] After a preincubation of 5 min at 37° C., the reaction is started by adding the substrate (cAMP) and the assays are incubated for a further 15 min; after that, they are stopped by adding SPA beads (50 pl). In accordance with the manufacturer's instructions, the SPA beads had previously been resuspended in water, but were then diluted 1:3 (v/v) in water; the diluted solution also contains 3 mM IBMX to ensure a complete PDE activity stop. After the beads have been sedimented (>30 min), the MTP's are analyzed in commercially available luminescence detection devices. The corresponding IC50 values of the compounds for the inhibition of PDE4B1 activity are determined from the concentration-effect curves by means of non-linear regression.

| SMILES | IC50 (human PDE5) | IC50 (PDE4B1) |
| --- | --- | --- |
| CCOc1cc2c(cc1OC)C(c1ccc(C(=O)N3CCC(n4c(=O)c5sc(-c6ccccc6)cc5n(Cc5cnc(CC)o5)c4=O)CC3)cc1)=N[C@@H]1CCSC[C@H]21 [Example 9, 3-[1-({4-[(4aR,10bR)-9-ethoxy-8-methoxy-3,4,4a,10b-tetrahydro-1H-thiopyrano[4,3-c]isoquinolin-6-yl]phenyl}carbonyl)piperidin-4-yl]-1-[(2-ethyl-1,3-oxazol-5-yl)methyl]-6-phenylthieno[3,2-d]pyrimidine-2,4(1H,3H)-dione] | 0.01 to 0.1 µM | 0.001 to 0.01 µM |
| CCOc1cc2c(cc1OC)C(c1ccc(C(=O)N3CCC(n4c(=O)c5sc(-c6ccccc6)cc5n(Cc5coc(CC)n5)c4=O)CC3)cc1)=N[C@@H]1CCSC[C@H]21 [Example 16, 3-[1-({4-[(4aR,10bR)-9-ethoxy-8-methoxy-3,4,4a,10b-tetrahydro-1H-thiopyrano[4,3-c]isoquinolin-6-yl]phenyl}carbonyl)piperidin-4-yl]-1-[(2-ethyl-1,3-oxazol-4-yl)methyl]-6-phenylthieno[3,2-d]pyrimidine-2,4(1H,3H)-dione] | > 0.1 µM | 0.001 to 0.01 µM |
| CCOc1cc2c(cc1OC)C(c1ccc(C(=O)N3CCC(n4c(=O)c5sc(-c6ccccc6)cc5n(Cc5nc(CSC)no5)c4=O)CC3)cc1)=N[C@@H]1CCSC[C@H]21 [Example 11, 3-[1-({4-[(4aR,10bR)-9-ethoxy-8-methoxy-3,4,4a,10b-tetrahydro-1H-thiopyrano[4,3-c]isoquinolin-6-yl]phenyl}carbonyl)piperidin-4-yl]-1-({3-[(methylsulfanyl)methyl]-1,2,4-oxadiazol-5-yl}methyl)-6-phenylthieno[3,2-d]pyrimidine-2,4(1H,3H)-dione] | < 0.01 µM | 0.001 to 0.01 µM |
| CCOc1cc2c(cc1OC)C(c1ccc(C(=O)N3CCC(n4c(=O)c5sc(-c6ccccc6)cc5n(Cc5nc(COC)no5)c4=O)CC3)cc1)=N[C@@H]1CCSC[C@H]21 [Example 15, 3-(1-{4-[(4aR,10bR)-9-ethoxy-8-methoxy-3,4,4a,10b-tetrahydro-1H-thiopyrano[4,3-c]isoquinolin-6-yl]benzoyl}piperidin-4-yl)-1-{[3-(methoxymethyl)-1,2,4-oxadiazol-5-yl]methyl}-6-phenylthieno[3,2-d]pyrimidine-2,4(1H,3H)-dione] | < 0.01 µM | 0.001 to 0.01 µM |
| CCOc1cc2c(cc1OC)C(c1ccc(C(=O)N3CCC(n4c(=O)c5sc(-c6ccccc6)cc5n(Cc5nnn(CC)n5)c4=O)CC3)cc1)=NC1CC[S+]([O-])CC21 (single isomer, unassigned) [Example 24] | < 0.01 µM | > 0.01 µM |
| CCOc1cc2c(cc1OC)C(c1ccc(C(=O)N3CCC(n4c(=O)c5sc(-c6ccccc6)cc5n(Cc5cnc(C)s5)c4=O)CC3)cc1)=N[C@@H]1CCSC[C@H]21 [Example 20, 3-[1-({4-[(4aR,10bR)-9-ethoxy-8-methoxy-3,4,4a,10b-tetrahydro-1H-thiopyrano[4,3-c]isoquinolin-6-yl]phenyl}carbonyl)piperidin-4-yl]-1-[(2-methyl-1,3-thiazol-5-yl)methyl]-6-phenylthieno[3,2-d]pyrimidine-2,4(1H,3H)-dione] | < 0.01 µM | 0.001 to 0.01 µM |
| CCOc1cc2c(cc1OC)C(c1ccc(C(=O)N3CCC(n4c(=O)c5sc(-c6ccccc6)cc5n(Cc5nc(CC)no5)c4=O)CC3)cc1)=N[C@@H]1CCSC[C@H]21 [Example 7, 3-(1-{4-[(4aR,10bR)-9-ethoxy-8-methoxy-3,4,4a,10b-tetrahydro-1H-thiopyrano[4,3-c]isoquinolin-6-yl]benzoyl}piperidin-4-yl)-1-[(3-ethyl-1,2,4-oxadiazol-5-yl)methyl]-6-phenylthieno[3,2-d]pyrimidine-2,4(1H,3H)-dione] | < 0.01 µM | 0.001 to 0.01 µM |

Other lines, results leading:

| IC50 (human PDE5) | IC50 (PDE4B1) | SMILES |
| --- | --- | --- |
| 0.01 to 0.1 µM | 0.001 to 0.01 µM | CCOc1cc2c(cc1OC)C(c1ccc(C(=O)N3CCC(n4c(=O)c5sc(-c6ccccc6)cc5n(Cn5nnc(CC)n5)c4=O)CC3)cc1)=N[C@@H]1CCSC[C@H]21 [Example 57, 3-[1-({4-[(4aR,10bR)-9-ethoxy-8-methoxy-3,4,4a,10b-tetrahydro-1H-thiopyrano[4,3-c]isoquinolin-6-yl]phenyl}carbonyl)piperidin-4-yl]-1-[(5-ethyl-2H-tetrazol-2-yl)methyl]-6-phenylthieno[3,2-d]pyrimidine-2,4(1H,3H)-dione] |
| < 0.01 µM | 0.001 to 0.01 µM | CCOc1cc2c(cc1OC)C(c1ccc(C(=O)N3CCC(n4c(=O)c5sc(-c6ccc7c(c6)OCO7)cc5n(Cc5nnn(CC)n5)c4=O)CC3)cc1)=N[C@@H]1CCSC[C@H]21 [Example 30, 6-(1,3-benzodioxol-5-yl)-3-[1-({4-[(4aR,10bR)-9-ethoxy-8-methoxy-3,4,4a,10b-tetrahydro-1H-thiopyrano[4,3-c]isoquinolin-6-yl]phenyl}carbonyl)piperidin-4-yl]-1-[(2-ethyl-2H-tetrazol-5-yl)methyl]thieno[3,2-d]pyrimidine-2,4(1H,3H)-dione] |
| 0.01 to 0.1 µM | > 0.01 µM | CCOc1cc2c(cc1OC)C(c1ccc(C(=O)N3CCC(n4c(=O)c5sc(-c6cccc(F)c6F)cc5n(Cc5nnn(CC)n5)c4=O)CC3)cc1)=N[C@@H]1CCSC[C@H]21 [Example 42, 6-(2,3-difluorophenyl)-3-[1-({4-[(4aR,10bR)-9-ethoxy-8-methoxy-3,4,4a,10b-tetrahydro-1H-thiopyrano[4,3-c]isoquinolin-6-yl]phenyl}carbonyl)piperidin-4-yl]-1-[(2-ethyl-2H-tetrazol-5-yl)methyl]thieno[3,2-d]pyrimidine-2,4(1H,3H)-dione] |
